What was measured:
cats = assay: two-bowl preference test, Example 5 (Feline w/d); format: in vivo, cat; conditions: dry wt. of kibble
Description: Finally, a commercial dry palatant enhancer (1.4% dry weight basis) was topically applied to the dry kibbles to complete the test composition.

dogs = assay: two-bowl preference test, Example 2 (Canine r/d); format: in vivo, dog; conditions: dry wt. of kibble
Description: Each of the test flavors (2.0%, dry weight basis) was topically applied to a dry, commercial dog food (Canine r/d from Hill's Pet Nutrition, Inc.) after sequential application of soy bean oil (2.0%, dry weight basis) and choice white grease (0.4%, dry weight basis) to form a test composition. Each test composition was compared against a control composition in a palatability test as described in Example 1. The control compositions were prepared by topically applying the commercial liquid palatant enhancer (2.0% dry weight basis) to the dry, commercial dog food (Canine r/d) after sequential application of soy bean oil (2.0%, dry weight basis) and choice white grease (0.4%, dry weight basis). Palatability was determined by comparing the test composition and the control composition in a standard two-bowl preference test over two days with 20 dogs as described in Example 1.

[1] = Exp. No. 7, second set of experiments, 5.0 ppm
[2] = Exp. No. 8, second set of experiments, 10.0 ppm
[3] = Exp. No. 9, second set of experiments, 20.0 ppm
[4] = Exp. No. 10, second set of experiments, 30.0 ppm
[5] = Exp. No. 11, second set of experiments, 40.0 ppm
[6] = Exp. No. 12, second set of experiments, 50.0 ppm

SMILES: CC1=C(O)C(=O)C(C)O1 (stereo not drawn) [2,5-dimethyl-4-hydroxy-3(2H)-furanone]
- Intake Ratio (cats; Exp. No. 1, 5.0 ppm): 0.7676
- Preference (%) control composition (cats; Exp. No. 1, 5.0 ppm): 8.0%
- Preference (%) test composition (cats; Exp. No. 1, 5.0 ppm): 92.0%
- Status (vs. control) (cats; Exp. No. 1, 5.0 ppm): Win
- Intake Ratio (cats; Exp. No. 2, 10.0 ppm): 0.8135
- Preference (%) control composition (cats; Exp. No. 2, 10.0 ppm): 8.0%
- Preference (%) test composition (cats; Exp. No. 2, 10.0 ppm): 88.0%
- Status (vs. control) (cats; Exp. No. 2, 10.0 ppm): Win
- Intake Ratio (cats; Exp. No. 3, 20.0 ppm): 0.8151
- Preference (%) control composition (cats; Exp. No. 3, 20.0 ppm): 12.0%
- Preference (%) test composition (cats; Exp. No. 3, 20.0 ppm): 88.0%
- Status (vs. control) (cats; Exp. No. 3, 20.0 ppm): Win
- Intake Ratio (cats; Exp. No. 4, 30.0 ppm): 0.7546
- Preference (%) control composition (cats; Exp. No. 4, 30.0 ppm): 20.0%
- Preference (%) test composition (cats; Exp. No. 4, 30.0 ppm): 80.0%
- Status (vs. control) (cats; Exp. No. 4, 30.0 ppm): Win
- Intake Ratio (cats; Exp. No. 5, 40.0 ppm): 0.7626
- Preference (%) control composition (cats; Exp. No. 5, 40.0 ppm): 12.0%
- Preference (%) test composition (cats; Exp. No. 5, 40.0 ppm): 88.0%
- Status (vs. control) (cats; Exp. No. 5, 40.0 ppm): Win
- Intake Ratio (cats; Exp. No. 6, 50.0 ppm): 0.8505
- Preference (%) control composition (cats; Exp. No. 6, 50.0 ppm): 8.0%
- Preference (%) test composition (cats; Exp. No. 6, 50.0 ppm): 92.0%
- Status (vs. control) (cats; Exp. No. 6, 50.0 ppm): Win
- Intake Ratio (cats; [1]): 0.9385
- Preference (%) control composition (cats; [1]): 0.0%
- Preference (%) test composition (cats; [1]): 100.0%
- Status (vs. control) (cats; [1]): Win
- Intake Ratio (cats; [2]): 0.7990
- Preference (%) control composition (cats; [2]): 12.0%
- Preference (%) test composition (cats; [2]): 84.0%
- Status (vs. control) (cats; [2]): Win
- Intake Ratio (cats; [3]): 0.8128
- Preference (%) control composition (cats; [3]): 8.0%
- Preference (%) test composition (cats; [3]): 92.0%
- Status (vs. control) (cats; [3]): Win
- Intake Ratio (cats; [4]): 0.8912
- Preference (%) control composition (cats; [4]): 4.0%
- Preference (%) test composition (cats; [4]): 92.0%
- Status (vs. control) (cats; [4]): Win
- Intake Ratio (cats; [5]): 0.8012
- Preference (%) control composition (cats; [5]): 16.0%
- Preference (%) test composition (cats; [5]): 80.0%
- Status (vs. control) (cats; [5]): Win
- Intake Ratio (cats; [6]): 0.8339
- Preference (%) control composition (cats; [6]): 12.5%
- Preference (%) test composition (cats; [6]): 87.5%
- Status (vs. control) (cats; [6]): Win
- Intake Ratio (dogs; Exp. No. 1, 21.75 ppm): 0.5843
- Preference (%) control composition (dogs; Exp. No. 1, 21.75 ppm): 42.9%
- Preference (%) test composition (dogs; Exp. No. 1, 21.75 ppm): 50.0%
- Status (vs. control) (dogs; Exp. No. 1, 21.75 ppm): Parity
- Intake Ratio (dogs; Exp. No. 2, 43.5 ppm): 0.6667
- Preference (%) control composition (dogs; Exp. No. 2, 43.5 ppm): 16.7%
- Preference (%) test composition (dogs; Exp. No. 2, 43.5 ppm): 77.8%
- Status (vs. control) (dogs; Exp. No. 2, 43.5 ppm): Win
- Intake Ratio (dogs; Exp. No. 3, 87.1 ppm): 0.5732
- Preference (%) control composition (dogs; Exp. No. 3, 87.1 ppm): 29.4%
- Preference (%) test composition (dogs; Exp. No. 3, 87.1 ppm): 64.7%
- Status (vs. control) (dogs; Exp. No. 3, 87.1 ppm): Parity
- Intake Ratio (dogs; Exp. No. 4, 174.0 ppm): 0.5523
- Preference (%) control composition (dogs; Exp. No. 4, 174.0 ppm): 31.3%
- Preference (%) test composition (dogs; Exp. No. 4, 174.0 ppm): 50.0%
- Status (vs. control) (dogs; Exp. No. 4, 174.0 ppm): Parity
- Intake Ratio (dogs; Exp. No. 5, 217.5 ppm): 0.5047
- Preference (%) control composition (dogs; Exp. No. 5, 217.5 ppm): 66.7%
- Preference (%) test composition (dogs; Exp. No. 5, 217.5 ppm): 33.3%
- Status (vs. control) (dogs; Exp. No. 5, 217.5 ppm): Parity
- Intake Ratio (dogs; Exp. No. 6, 282.8 ppm): 0.4297
- Preference (%) control composition (dogs; Exp. No. 6, 282.8 ppm): 47.1%
- Preference (%) test composition (dogs; Exp. No. 6, 282.8 ppm): 52.9%
- Status (vs. control) (dogs; Exp. No. 6, 282.8 ppm): Parity

Reference: US20050142169A1, “Palatability enhanced composition and method for animal consumption” (priority 2003, published 2005)
